US20230126447A1, “OCULAR DRUG DEPOT FOR COMPLEMENT-MEDIATED DISORDERS” (priority 2020, published 2023)
Like-named read-outs stand apart in the source and are kept apart here.

Legend:
[1] = QWBA tissue distribution of [14C] Compound 1, pigmented Long-Evans rats (PO, IV); assay type: in vivo; details: male LE rats, 20 mg/kg PO
Procedure: This study was conducted to determine the tissue distribution of drug-related radioactivity following a single oral (PO) (20 mg/kg) or intravenous (IV) (5 mg/kg) administration of [^14C]
Ten adult male pigmented Long-Evans (LE) rats (Group 1), 1 adult male LE rat (Group 2), and 3 albino Wistar Han (WH) rats (Group 3) received a single oral 20 mg/kg (Groups 1 and 3) or IV 5 mg/kg (Group 2) dose of [^14C] […] The formulation was prepared at a target dose of 5 mg (IV) or 20 mg (PO) […]
The carcasses were frozen in hexane dry-ice and stored at or below −20° C. prior to processing for QWBA. Each carcass was embedded, cut into sagittal sections, and mounted for QWBA. […] The lower limit of quantitation was 0.105 μg equiv/g.

[2] = Ocular tissue and plasma pharmacokinetics, 50 mg/kg BID oral, New Zealand White rabbits (Example 4); assay type: in vivo; details: one-hour post-dose on Day 15
Procedure: Study design, including group designation and dose levels, are outlined in Table 15. […] Two Dutch Belted rabbits received vehicle only oral gavage doses for tolerability assessment. […] The dose volume was 5 mL/kg/dose for all groups. Safety was assessed with toxicological and ophthalmic examinations, including slit lamp biomicroscopy, indirect ophthalmoscopy, rebound tonometry, and ultrasonic corneal pachymetry. […] Plasma, vitreous humor (VH), retina, choroid-retina pigmented epithelium (Choroid-RPE), optic nerve (ON), and iris-ciliary body (I-CB) were analyzed by LC-MS/MS to quantify test article concentrations. The lower limit of quantitation (LLOQ) in plasma and vitreous humor was 1.0 ng/mL.

[3] = In vitro binding to synthetic melanin; details: synthetic melanin 50 μg/mL, PBS, 37° C., 1 hour
Procedure: […] The melanin solution was stored in the dark at 37° C. until use.
Immediately after the assay, samples were added to an equal volume of warm PBS, aliquots (3 μL each) were removed, added to 100 μL of acetonitrile containing carbutamide as internal standard, and then diluted with water (197 μL). These time-zero samples, prepared in PBS only, were also used as calibration standards.
The assay plates containing samples with and without melanin were incubated in the dark with shaking at 37° C. for 1 hour. Following incubation, the samples were centrifuged for 15 minutes at approximately 4000 rpm at 37° C. to sediment the melanin. Sample supernatant (3 μL) was added to 100 μL of acetonitrile containing the internal standard and then diluted with water (197 μL).
The column was set to a temperature of 55° C. […]
Analytes and internal standards were detected using an Applied Biosystems Sciex API-5500 triple quadrupole mass spectrometer with Agilent 1260 Infinity Binary Pump and Apricot Designs ADDA High-Speed Dual Arm Autosampling System. The instrument was equipped with an electrospray ionization source (600° C.) operated in the positive ion mode. Analytes and internal standards for all samples were monitored in the multiple-reaction-monitoring scan mode.

AP activity = assay: cells; details: Erythrocyte, read-out: IC50 for PNH erythrocyte hemolysis
[4] = Ocular tissue and plasma pharmacokinetics, 15 mg/kg oral, New Zealand White rabbits (Example 3/5); assay type: in vivo
[5] = Choroid-RPE, NZW rabbit, 15 mg/kg single dose, Day 1
[6] = NZW rabbit, 15 mg/kg single oral dose, Day 1, 0 h, 15 mg/kg
[7] = NZW rabbit, 15 mg/kg single oral dose, Day 1, 6 h, 15 mg/kg
[8] = NZW rabbit, 15 mg/kg single oral dose, Day 1, 24 h
[9] = NZW rabbit, 15 mg/kg single oral dose, Day 1, 24 h, 15 mg/kg
[10] = NZW rabbit, 15 mg/kg single oral dose, Day 1, 96 h
[11] = NZW rabbit, 15 mg/kg single oral dose, Day 1, 96 h, 15 mg/kg
[12] = NZW rabbit, 15 mg/kg single oral dose, Day 1, 168 h
[13] = NZW rabbit, 15 mg/kg single oral dose, Day 1, 168 h, 15 mg/kg
[14] = NZW rabbit, 15 mg/kg single oral dose, Day 1, 240 h, 15 mg/kg
[15] = NZW rabbits, Day 1, 15 mg/kg single dose, 0 hr
[16] = NZW rabbits, Day 1, 15 mg/kg single dose, 168 hr
[17] = NZW rabbits, Day 1, 15 mg/kg single dose, 240 hr
[18] = New Zealand White, po, Iris-Ciliary Body, NZW rabbit, 15 mg/kg single dose, Day 1
[19] = New Zealand White, po, Vitreous Humor, NZW rabbit, 15 mg/kg single dose, Day 1
[20] = plasma, NZW rabbit, 15 mg/kg single dose, Day 1
[21] = retina, NZW rabbit, 15 mg/kg single dose, Day 1

CC(=O)c1nn(CC(=O)N2C[C@H](F)C[C@H]2C(=O)Nc2cccc(Br)n2)c2ccc(-c3cnc(C)nc3)cc12 [Compound 1, (2S,4R)-1-(2-(3-Acetyl-5-(2-methylpyrimidin-5-yl)-1H-indazol-1-yl)acetyl)-N-(6-bromopyridin-2-yl)-4-fluoropyrrolidine-2-carboxamide]
Concentration of radioactivity at Tmax, adrenal gland cortex [1]: 33.5 μg equiv/g
Concentration of radioactivity at Tmax, liver [1]: 52.0 μg equiv/g
Concentration of radioactivity at Tmax, small intestine [1]: 77.9 μg equiv/g
Concentration of radioactivity at Tmax, stomach [1]: 374 μg equiv/g
Concentration of radioactivity at Tmax, tissues with the lowest concentrations (brain, spinal cord, bone, testis, lens of the eye) [1]: < 1.00 μg equiv/g
Concentration of radioactivity at Tmax, urinary bladder [1]: 54.2 μg equiv/g
Concentration of radioactivity at Tmax, white adipose [1]: 21.1 μg equiv/g
t1/2, eye uvea [1]: 576 h
t1/2, liver [1]: 48.5 h
t1/2, pigmented skin [1]: 472 h
Concentration of radioactivity at Tmax, bile ([1]; 1 h): 232 μg equiv/g
Highest concentration of radioactivity in blood ([1]; 1 h post-dose): 5.28 μg equiv/g
Concentration of radioactivity at Tmax, urine ([1]; 4 h): 66.2 μg equiv/g
Concentration of radioactivity in blood ([1]; 8 h post-dose): 0.184 μg equiv/g
Tissues with quantifiable concentrations at 672 h ([1]; 672 h): Only eye (uvea) and pigmented skin
Choroid-RPE tissue exposure in NZW versus DB rabbit [2]: approximately five-fold lower
Bmax (binding capacity) [3]: 127 nmol/mg melanin
IC50 (AP activity): 14 nM
MRTlast [4, 5]: 5.87 h
Tlast [4, 5]: 24 h
Tlast ([4]; Iris-Ciliary Body, NZW rabbit, 15 mg/kg single dose, Day 1): 1 h
Mean Vitreous Humor concentration ([4]; NZW rabbit, 15 mg/kg single oral dose, Day 1, 0 h): BLQ^a
Mean Choroid-RPE concentration [4, 6]: BLQ^a and BLQ
Mean Iris-Ciliary Body concentration [4, 6]: BLQ^a and BLQ
Mean plasma concentration [4, 6]: BLQ^a and BLQ
Mean retina concentration [4, 6]: BLQ^a and BLQ
Mean Aqueous Humor concentration ([4]; NZW rabbit, 15 mg/kg single oral dose, Day 1, 6 h): BLQ^a
Mean Iris-Ciliary Body concentration [4, 7]: BLQ^a and BLQ
Mean retina concentration [4, 7]: 26 ng/g
Mean Aqueous Humor concentration [4, 8]: BLQ^a
Mean Vitreous Humor concentration [4, 8]: BLQ^a
Mean Iris-Ciliary Body concentration [4, 9]: BLQ^a and BLQ
Mean retina concentration [4, 9]: BLQ^a and BLQ
Mean Aqueous Humor concentration [4, 10]: BLQ^a
Mean Vitreous Humor concentration [4, 10]: BLQ^a
Mean Choroid-RPE concentration [4, 11]: BLQ^a and BLQ
Mean Iris-Ciliary Body concentration [4, 11]: BLQ^a and BLQ
Mean plasma concentration [4, 11]: BLQ^a and BLQ
Mean retina concentration [4, 11]: BLQ^a and BLQ
Mean Aqueous Humor concentration [4, 12]: BLQ^a
Mean Vitreous Humor concentration [4, 12]: BLQ^a
Mean Choroid-RPE concentration [4, 13]: BLQ^a and BLQ
Mean Iris-Ciliary Body concentration [4, 13]: BLQ^a and BLQ
Mean retina concentration [4, 13]: BLQ^a and BLQ
Mean Aqueous Humor concentration ([4]; NZW rabbit, 15 mg/kg single oral dose, Day 1, 240 h): BLQ^a
Mean Choroid-RPE concentration [4, 14]: BLQ^a and BLQ
Mean Iris-Ciliary Body concentration [4, 14]: BLQ^a and BLQ
Mean plasma concentration [4, 14]: BLQ^a and BLQ
Mean retina concentration [4, 14]: BLQ^a and BLQ
Mean Choroid-RPE concentration [4, 15]: BLQ
Mean retina concentration [4, 15]: BLQ
Mean retina concentration ([4]; NZW rabbits, Day 1, 15 mg/kg single dose, 24 hr): BLQ
Mean Choroid-RPE concentration ([4]; NZW rabbits, Day 1, 15 mg/kg single dose, 96 hr): BLQ
Mean Choroid-RPE concentration [4, 16]: BLQ
Mean retina concentration [4, 16]: BLQ
Mean Choroid-RPE concentration [4, 17]: BLQ
Mean retina concentration [4, 17]: BLQ
concentration at 1 h ([4]; New Zealand White, aqueous humor, NZW rabbit, 15 mg/kg single oral dose, Day 1, 1 h, read-out: Mean Aqueous Humor concentration): 4 ng/mL
concentration at 1 h ([4]; New Zealand White, choroid-RPE, NZW rabbit, 15 mg/kg single oral dose, Day 1, 1 h, read-out: Mean Choroid-RPE concentration): 172 ng/g
concentration at 6 h ([4]; New Zealand White, choroid-RPE, NZW rabbit, 15 mg/kg single oral dose, Day 1, 6 h, read-out: Mean Choroid-RPE concentration): 31.5 ng/g
concentration at 24 h ([4]; New Zealand White, choroid-RPE, NZW rabbit, 15 mg/kg single oral dose, Day 1, 24 h, read-out: Mean Choroid-RPE concentration): 15.1 ng/g
concentration at 1 h ([4]; New Zealand White, plasma, NZW rabbit, 15 mg/kg single oral dose, Day 1, 1 h, read-out: Mean plasma concentration): 310 ng/mL
concentration at 6 h ([4]; New Zealand White, plasma, NZW rabbit, 15 mg/kg single oral dose, Day 1, 6 h, read-out: Mean plasma concentration): 35.1 ng/mL
concentration at 24 h ([4]; New Zealand White, plasma, NZW rabbit, 15 mg/kg single oral dose, Day 1, 24 h, read-out: Mean plasma concentration): 11.1 ng/mL
Cmax [4, 18]: 117 ng/g
MRT last [4, 18]: 1 h
AUC(0-t) [4, 19]: 30.3 ng·h/mL
Cmax [4, 19]: 7.61 ng/mL
Cmax ([4]; New Zealand White, po, plasma, NZW rabbit, 15 mg/kg single dose, Day 1): 310 ng/mL
concentration at 1 h ([4]; New Zealand White, rabbit, choroid-RPE, oral, NZW rabbits, Day 1, 15 mg/kg single dose, 1 hr, read-out: Mean Choroid-RPE Concentration): 172 ng/g
concentration at 6 h ([4]; New Zealand White, rabbit, choroid-RPE, oral, NZW rabbits, Day 1, 15 mg/kg single dose, 6 hr, read-out: Mean Choroid-RPE Concentration): 31.5 ng/g
concentration at 24 h ([4]; New Zealand White, rabbit, choroid-RPE, oral, NZW rabbits, Day 1, 15 mg/kg single dose, 24 hr, read-out: Mean Choroid-RPE Concentration): 15.1 ng/g
concentration at 1 h ([4]; New Zealand White, rabbit, retina, oral, NZW rabbits, Day 1, 15 mg/kg single dose, 1 hr, read-out: Mean Retina Concentration): 200 ng/g
concentration at 6 h ([4]; New Zealand White, rabbit, retina, oral, NZW rabbits, Day 1, 15 mg/kg single dose, 6 hr, read-out: Mean Retina Concentration): 26 ng/g
concentration at 1 h ([4]; New Zealand White, retina, NZW rabbit, 15 mg/kg single oral dose, Day 1, 1 h, read-out: Mean retina concentration): 200 ng/g
concentration at 6 h ([4]; New Zealand White, retina, NZW rabbit, 15 mg/kg single oral dose, Day 1, 6 h, read-out: Mean retina concentration): 26 ng/g
concentration at 1 h ([4]; New Zealand White, vitreous humor, NZW rabbit, 15 mg/kg single oral dose, Day 1, 1 h, read-out: Mean Vitreous Humor concentration): 7.61 ng/mL
concentration at 6 h ([4]; New Zealand White, vitreous humor, NZW rabbit, 15 mg/kg single oral dose, Day 1, 6 h, read-out: Mean Vitreous Humor concentration): 3 ng/mL
MRTlast [4, 20]: 4.01 h
Tlast [4, 20]: 24 h
MRTlast [4, 21]: 1.49 h
Tlast [4, 21]: 6 h
